Source: US20050282840A1, “Methods of modulating neurotrophin-mediated activity” (PainCeptor Pharma Corporation, priority 2004, published 2005)
Where two headings read alike, the source gives them in different places.

Tests used:
[1] = target: T1, p75^NTR receptors (PC12 cells) (Rattus norvegicus, UniProt P07174); test: Basic screening assay: binding of 125I-BDNF to PC12 cells; conditions: read-out: BDNF Activity % Maximal Binding
T1 construct: endogenous in cells; host or cells: PC12 cells
T1 sequence (P07174 30-425): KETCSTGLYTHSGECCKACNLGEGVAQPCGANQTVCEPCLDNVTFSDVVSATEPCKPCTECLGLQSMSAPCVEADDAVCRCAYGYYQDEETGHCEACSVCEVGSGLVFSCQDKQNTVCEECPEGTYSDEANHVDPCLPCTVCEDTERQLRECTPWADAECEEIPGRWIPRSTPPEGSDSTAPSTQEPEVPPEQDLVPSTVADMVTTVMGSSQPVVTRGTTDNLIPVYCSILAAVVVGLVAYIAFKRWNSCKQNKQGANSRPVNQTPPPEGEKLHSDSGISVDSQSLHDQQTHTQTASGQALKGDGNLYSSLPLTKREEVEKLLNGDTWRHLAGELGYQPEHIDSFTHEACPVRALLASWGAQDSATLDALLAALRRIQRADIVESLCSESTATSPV
T1 sequence (P23560 129-247 partner): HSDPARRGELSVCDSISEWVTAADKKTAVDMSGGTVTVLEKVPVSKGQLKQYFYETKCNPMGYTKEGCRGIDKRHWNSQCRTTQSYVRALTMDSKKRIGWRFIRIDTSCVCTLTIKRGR
Summary of the method: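 4×10^6 PC12 cells incubated 2 h at 4° C, rotating, with 0.5 nM ^125I-BDNF (final) and compound at 50 μM, in duplicate or more. Bound ligand separated through 10% glycerol by centrifugation and counted by gamma counter; specific binding is Bmax minus NSB; inhibitors followed up for EC50.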

[2] = tested on: p75^NTR receptors (PC12 cells); test: Basic screening assay: binding of 125I-NGF to PC12 cells; conditions: test compound 50 μM, 0.5 nM 125I-NGF, PC12 cells, 2 h at 4° C., specific binding as percent of control
Summary of the method: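 Inhibition of 0.5 nM 125I-NGF binding to p75NTR on PC12 cells was measured with compounds at 50 μM during 2 h rotation at 4° C. Cell-bound radioactivity from glycerol-cushion centrifugation was gamma-counted, giving NSB-corrected binding as % of control specific binding.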

[3] = Table 1, test compound 50 μM, 0.5 nM 125I-BDNF, PC12 cells, 2 h at 4° C., specific binding as percent of control
[4] = Table 4, test compound 50 μM, 0.5 nM 125I-BDNF, PC12 cells, 2 h at 4° C., specific binding as percent of control

Row | SMILES | NGF Activity % Maximal Binding ([2]; Table 1) | activity at 50 µM [1, 4] [%] | NGF Activity % Maximal Binding ([2]; Table 4) | activity at 50 µM [1] [%] | also measured
1 | COC(=O)C(C)N1C(=O)S/C(=C/c2ccc(-c3cc(C(=O)O)ccc3C)o2)C1=O (centres unmarked) [Compound 29, 3-{5-[3-(1-Methoxycarbonyl-ethyl)-2,4-dioxo-thiazolidin-5-ylidenemethyl]furan-2-yl}-4-methylbenzoic acid] | * (50 < *) |  |  |  | activity at 50 µM [1, 3]: 10 to 20%
2 | Cc1cc([N+](=O)[O-])ccc1-c1ccc(C=C2SC(=S)NC2=O)o1 [Compound 7, 5-[5-(2-Methyl-4-nitrophenyl)furan-2-ylmethylene]-2-thioxo-thiazolidin-4-one] | * (50 < *) |  |  |  | activity at 50 µM [1, 3]: 0 to 10%
3 | CSC1=NC(=Cc2ccc(-c3ccc([N+](=O)[O-])cc3)o2)C(=O)S1 [Compound 111, 2-Methylsulfanyl-4-[5-(4-nitrophenyl)furan-2-ylmethylene]-4H-thiazol-5-one] |  | > 50 | * (50 < *) |  | 
4 | Cc1ccc(-c2ccc(C=C3C(=O)NC(=S)NC3=O)o2)cc1[N+](=O)[O-] [Compound 106, 5-[5-(4-Methyl-3-nitrophenyl)furan-2-ylmethylene]-2-thioxo-dihydro-pyrimidine-4,6-dione] |  |  | * (50 < *) | > 50 | 
5 | CCOC(=O)CN1C(=O)S/C(=C/c2ccc(-c3cccc([N+](=O)[O-])c3)o2)C1=O [Compound 116, {5-[5-(3-Nitrophenyl)furan-2-ylmethylene]-2,4-dioxo-thiazolidin-3-yl}-acetic acid ethyl ester] |  | > 50 | * (50 < *) |  | 
6 | O=C(O)CCCN1C(=O)C(=Cc2ccc(-c3cccc([N+](=O)[O-])c3)o2)SC1=S [Compound 84, 4-{5-[5-(3-Nitrophenyl)furan-2-ylmethylene]-4-oxo-2-thioxo-thiazolidin-3-yl}-butyric acid] |  |  |  |  | activity at 50 µM ([1]; Table 2, test compound 50 μM, 0.5 nM 125I-BDNF, PC12 cells, 2 h at 4° C., specific binding as percent of control): 40 to 50%; NGF Activity % Maximal Binding ([2]; Table 2): XXXXX (0 < XXXXX < 10)
7 | COc1cc([N+](=O)[O-])ccc1-c1ccc(/C=C2\NC(=S)NC2=O)o1 [Compound 90, 5-[5-(2-Methoxy-4-nitrophenyl)furan-2-ylmethylene]-2-thioxo-imidazolidin-4-one] |  | > 50 | * (50 < *) |  | 
8 | Cc1cc(C(=O)O)ccc1-c1ccc(/C=C2\C(=O)NC(=O)N(c3ccccc3F)C2=O)o1 [Compound 66, 4-{5-[1-(2-Fluorophenyl)-2,4,6-trioxo-tetrahydro-pyrimidin-5-ylidenemethyl]furan-2-yl}-3-methylbenzoic acid] |  |  |  | 0 to 10 | NGF Activity % Maximal Binding ([2]; Table 2): XXX (20 < XXX < 30)
9 | CN1C(=O)/C(=C/c2ccc(-c3ccc(S(N)(=O)=O)cc3)o2)SC1=S [Compound 45, 4-[5-(3-Methyl-4-oxo-2-thioxo-thiazolidin-5-ylidenemethyl)furan-2-yl]benzenesulfonamide] | * (50 < *) |  |  |  | activity at 50 µM [1, 3]: 30 to 40%
10 | Cc1cc([N+](=O)[O-])ccc1-c1ccc(/C=C2/C(=O)NC(=O)N(C)C2=O)o1 [Compound 53, 1-Methyl-5-[5-(2-methyl-4-nitrophenyl)furan-2-ylmethylene]-pyrimidine-2,4,6-trione] | * (50 < *) |  |  | 30 to 40 | 
11 | Cc1cc(C)cc(N2C(=O)/C(=C/c3ccc(-c4ccc(C(=O)O)cc4)o3)C(=O)NC2=S)c1 [Compound 124, 4-{5-[1-(3,5-Dimethylphenyl)-4,6-dioxo-2-thioxo-tetrahydro-pyrimidin-5-ylidenemethyl]furan-2-yl}benzoic acid] |  |  | * (50 < *) | > 50 | 
12 | Cc1cc(-c2ccc(C=C3NC(=S)NC3=O)o2)ccc1[N+](=O)[O-] [Compound 95, 5-[5-(3-Methyl-4-nitrophenyl)furan-2-ylmethylene]-2-thioxo-imidazolidin-4-one] |  | > 50 | * (50 < *) |  | 
13 | O=C1NC(=S)NC(=O)C1=Cc1ccc(-c2ccc(C(=O)O)cc2)o1 [Compound 6, 4-[5-(4,6-Dioxo-2-thioxo-tetrahydro-pyrimidin-5-ylidenemethyl)furan-2-yl]benzoic acid] | * (50 < *) |  |  | 0 to 10 | 
